# Experimental data as given in patent US8748412B2, “Phenylalanine derivatives and their use as non-peptide GLP-1 receptor modulators” (Argusina Bioscience Inc., priority 2011, dated 2014).
# Biological target: T1, human GLP1R (Homo sapiens, UniProt P43220)
# T1 construct: expressed in transfected cells; host or cells: CHO cells (ATCC), transient transfection with pCMV-human GLP1R
# Experiment: Human GLP-1 receptor transfected cell assay (MRE/CRE-luciferase reporter gene, agonist activity)
# Type: cell-based
# Conditions: 6 h; conc. 3.16 μM; percentage of the activity of the control; read-out: Agonist Activity
# Protocol: The glucagon-like peptide I receptor (GLP1R) is a class B Gs-coupled membrane receptor, an agonist of which activates adenylate cyclase (AC) and elevates intracellular cAMP level. In turn, the high content of secondary messengers can activate the cAMP response element binding protein (CREB), which can translocate into nucleus to activate gene transcription.
# A reporter gene based screening assay was established to measure the effect of a compound on GLP1R. In this assay, a compound was incubated with CHO cells transiently transfected with a human GLP1R plasmid and a multiple response element (MRE)/cAMP response element (CRE)-driven luciferase reporter plasmid. Once luciferase was induced by the compound, its specific substrate can be activated to produce light signal for measurement.
# Materials used in this assay included: (i) cell line: Chinese hamster ovary (CHO) cells (ATCC); (ii) fetal bovine serum (FBS) (Biochrom Co.); (iii) culture medium: RPMI1640 (Invitrogen Co.) supplemented with 10% FBS; (iv) LIPOFECTAMINE™ 2000 Reagent (Invitrogen Co.); (v) plasmids: pCMV-human GLP1R and pGL3-1905 reporter plasmid; (vi) GLP1 (7-36 amide) peptide (Sigma Co.); and (vii) BRIGHT-GLO™ Luciferase Assay System (Promega Co.).
# Instruments used in this assay included: (i) Form a carbon dioxide incubator (Thermo Form a Co.); and (ii) Flexstation 3 (Molecular Device Co.).
# Before transfection, CHO cells were plated into a 6-well culture plate at 800,000/2 mL/well, and cultured at 37° C. in 5% CO2 overnight. On the transfection day, cells were transfected with receptor plasmid and reporter plasmid using LIPOFECTAMINE™ 2000 reagent. After 6-hour transfection, cells were digested and seeded into 96-well plates at 20,000/100 μL/well. After 14-16 hour incubation, transfected cells were washed with 100 μL serum-free RPMII 640 medium first, and then added 50 μL of the culture medium. The GLP-1 standard and test compounds were respectively diluted to a series of concentrations, which were then added into the above 96-well culture plate at 50 μL/well. The cells were incubated at 37° C. in 5% CO2 for 6 hrs. The activity of luciferase was detected using BRIGHT-GLO™ Luciferase Analytic System, and the reading was performed with a Flexstation3 plate reader machine.
# T1 sequence (P43220 24-463): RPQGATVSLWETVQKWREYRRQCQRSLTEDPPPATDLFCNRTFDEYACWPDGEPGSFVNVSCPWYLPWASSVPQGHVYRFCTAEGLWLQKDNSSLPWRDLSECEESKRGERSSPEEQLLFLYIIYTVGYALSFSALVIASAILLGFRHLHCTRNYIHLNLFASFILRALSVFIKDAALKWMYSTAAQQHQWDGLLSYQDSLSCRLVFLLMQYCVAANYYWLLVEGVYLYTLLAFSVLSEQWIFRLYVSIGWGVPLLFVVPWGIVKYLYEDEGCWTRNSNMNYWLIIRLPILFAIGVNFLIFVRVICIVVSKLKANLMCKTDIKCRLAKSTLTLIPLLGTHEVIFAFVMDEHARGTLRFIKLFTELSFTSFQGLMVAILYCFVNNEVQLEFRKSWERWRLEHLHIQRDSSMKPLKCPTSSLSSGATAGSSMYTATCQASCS
row,activation at 3.16 µM [%],SMILES
1,> 60,Cc1ccc(-c2ccc(C(=O)NC(Cc3ccc(-c4noc(-c5ccc(NC(=O)OC(C)(C)C)cc5)n4)c(Br)c3)C(=O)O)o2)cc1 (stereo not drawn) [Compound 13G]

# Same assay, conditions: 6 h; conc. 10 μM; percentage of the activity of the control; read-out: Agonist Activity
row,activation at 10 µM [%],SMILES
1,> 60,CC(C)(C)OC(=O)Nc1ccc(-c2nc(-c3ccc(CC(NC(=O)Nc4ccc(-c5ccccc5)cn4)C(=O)O)cc3F)no2)cc1 (stereo not drawn) [Compound 13X]
2,> 60,Cc1ccc(-c2cccc(C(=O)NC(Cc3ccc(-c4noc(-c5ccc(NC(=O)OC(C)(C)C)cc5)n4)c(F)c3)C(=O)O)c2)cc1 (stereo not drawn) [Compound 11N]
3,> 60,CC(C)(C)OC(=O)Nc1ccc(-c2nc(-c3ccc(CC(NC(=O)c4ccc(-c5ccccn5)s4)C(=O)O)cc3F)no2)cc1 (stereo not drawn) [Compound 13B]
4,40 to 60,CC(C)(C)OC(=O)Nc1ccc(-c2nc(-c3ccc(CC(NC(=O)Nc4ccccc4)C(=O)O)cc3F)no2)cc1 (stereo not drawn) [Compound 13D]
5,> 60,CC(C)(C)OC(=O)Nc1ccc(-c2nc(-c3ccc(CC(NC(=O)Nc4ccc(-c5ccc(OC(F)(F)F)cc5)cn4)C(=O)O)cc3F)no2)cc1 (stereo not drawn) [Compound 13N]
6,> 60,COc1ccc(-c2ccc(NC(=O)NC(Cc3ccc(-c4noc(-c5ccc(NC(=O)OC(C)(C)C)cc5)n4)c(F)c3)C(=O)O)nc2)cc1 (stereo not drawn) [Compound 13Y]

# Same assay, conditions: 6 h; concentration 1 μM; read-out: Activity (agonist), percentage of the activity of the control
row,activation at 1 µM [%],SMILES
1,> 60,Cc1ccc(-c2ccc(C(=O)NC(Cc3ccc(-c4noc(-c5ccc(NC(=O)OC(C)(C)C)cc5)n4)c(F)c3F)C(=O)O)o2)cc1F (stereo not drawn) [Compound 5M]
2,> 60,Cc1ccc(-c2ccc(C(=O)N[C@H](Cc3cc(Br)cc(-c4noc(-c5ccc(NC(=O)OC(C)(C)C)cc5)n4)c3)C(=O)O)o2)cc1 [Compound 6Y]

# Same assay, conditions: 6 h; concentration 3 μM; read-out: Activity (agonist), percentage of the activity of the control
row,activation at 3 µM [%],SMILES
1,> 60,CC(C)(C)OC(=O)Nc1ccc(-c2nc(-c3ccc(CC(NC(=O)Nc4ccc(-c5ccccc5F)cn4)C(=O)O)cc3F)no2)cc1 (stereo not drawn) [Compound 5C]
2,20 to 40,CC(C)(C)OC(=O)Nc1ccc(-c2nc(-c3ccc(CC(NC(=O)c4cn(Cc5ccc(F)cc5)nn4)C(=O)O)cc3F)no2)cc1 (stereo not drawn) [Compound 3K]
3,20 to 40,CC(C)c1ccc(-c2cccc(C(=O)N[C@H](Cc3ccc(-c4noc(-c5ccc(NC(=O)OC(C)(C)C)cc5)n4)c(F)c3)C(=O)O)c2)cc1 [Compound 6D]
4,40 to 60,Cn1nc(C(C)(C)C)cc1NC(=O)NC(Cc1ccc(-c2noc(-c3ccc(NC(=O)OC(C)(C)C)cc3)n2)c(F)c1)C(=O)O (stereo not drawn) [Compound 5B]
5,40 to 60,CC(C)(C)OC(=O)Nc1ccc(-c2nc(-c3ccc(CC(NC(=O)c4ccc(-c5ccccn5)s4)C(=O)O)cc3F)no2)cc1 (stereo not drawn) [Compound 1X]

# Same assay, conditions: 6 h; concentration 3.16 μM; read-out: Activity (agonist), percentage of the activity of the control
row,activation at 3.16 µM [%],SMILES
1,> 60,Cc1ccc(-c2nc(C(=O)NC(Cc3ccc(-c4noc(-c5ccc(NC(=O)OC(C)(C)C)cc5)n4)c(F)c3)C(=O)O)c[nH]2)cc1 (stereo not drawn) [Compound 2R]
2,> 60,Cn1c(C(=O)NC(Cc2ccc(-c3noc(-c4ccc(NC(=O)OC(C)(C)C)cc4)n3)c(F)c2)C(=O)O)cnc1-c1ccc(Cl)cc1 (stereo not drawn) [Compound 2Y]
3,> 60,Cc1ccc(-c2cccc(C(=O)N[C@H](Cc3ccc(-c4noc(-c5ccc(NC(=O)OC(C)(C)C)cc5)n4)c(F)c3)C(=O)O)c2)cc1Cl [Compound 6H]

# Same assay, conditions: 6 h; concentration 10 μM; read-out: Activity (agonist), percentage of the activity of the control
row,activation at 10 µM [%],SMILES
1,> 60,CC(C)(C)OC(=O)Nc1ccc(-c2nc(-c3ccc(CC(NC(=O)N4CCCN(c5ccc(C#N)cc5)CC4)C(=O)O)cc3F)no2)cc1 (stereo not drawn) [Compound 4P]
2,> 60,CC(C)c1ccc(-n2cnc(C(=O)NC(Cc3ccc(-c4noc(-c5ccc(NC(=O)OC(C)(C)C)cc5)n4)c(F)c3)C(=O)O)n2)cc1 (stereo not drawn) [Compound 3D]
3,> 60,Cc1ccc(-c2ccc(C(=O)N[C@H](Cc3ccc(-c4cc(-c5ccc(NC(=O)OC(C)C)cc5)[nH]n4)c(F)c3)C(=O)O)o2)cc1 [Compound 5P]

row,SMILES,activation at 10 µM [%]
1,"CC(C)(C)OC(=O)Nc1ccc(-c2nc(-c3ccc(CC(Nc4ccnc(N5CCCCC5)n4)C(=O)O)cc3F)no2)cc1 (stereo not drawn) [Compound 3M, 3-{4-[5-(4-tert-Butoxycarbonylamino-phenyl)-[1,2,4]oxadiazol-3-yl]-3-fluoro-phenyl}-2-(2-piperidin-1-yl-pyrimidin-4-ylamino)-propionic acid]",20 to 40
